Measurements published in patent US7897568B2, “Compositions for treatment of cancer” (priority 2006, dated 2011).
Where no end group is shown, it is not given here.

Tested on: MCF7-Neo cells
Experiment: Mitotic index and apoptosis by DAPI staining after paclitaxel
Assay type: cell-based
Details: neo cells expressing EGFP-ANK versus pEGFP, paclitaxel 18 hours
Experimental: FIG. 7A through D show expression of EGFP-ANK disrupting the SNCG-mediated inhibition of mitotic checkpoint function as measured by microscopy and flow cytometry. The bar graphs show the expression of EGFP-ANK disrupting the SNCG-mediated inhibition of mitotic checkpoint function, using (FIG. 7A) DAPI and (FIG. 7B) anti-phospho-H^3 staining. For graphs of FIGS. 7A and 7B, the cells treated with 0.5 μM paclitaxel for 18 hours or untreated control cells were fixed with 4% paraformaldehyde for 20 minutes at room temperature. In both cases, the cells were then stained with 1 μg/ml of DAPI or 2 μg/ml anti-phospho-H3 primary and Texas Red goat anti-rabbit secondary antibodies (Invitrogen). Green fluorescent cells were identified for positive transfected cells. For each sample, 200-300 cells randomly chosen from 5 different views under a Nikon fluorescent microscope were scored for interphase, mitotic, or apoptotic based upon nuclei morphology. The data shown were derived from three separate transfections (p<0.01). […]
Two days after transfection, cells were exposed to paclitaxel for 18 hours and numbers of mitotic arrested and apoptotic cells were counted after DAPI staining. […] These cells were also probed with rabbit polyclonal anti-phospho-H^3 and the mitotic index was calculated according to the proportion of the number of H^3 stained EGFP positive cells to total EGFP positive cells (FIG. 7B). […]

With “EGFP-ANK: ANK peptide expressed as a fusion protein with its amino-terminal linked to EGFP protein, approximately 37 kDa ({EGFP}-KGNSALHVASQHGHLGCIQTLVRYGANVTMQNHG)” the mitotic index was “did not significantly alter” and the “percentage of apoptotic cells” value was “did not significantly alter”.
